From a melting point compilation (Tetko et al.; mined from patent text by program, amines drawn as free bases though some values may be those of a salt)

Compound	melting point [°C]
NC(=O)c1ncn2c1[C@@H]1CCN1C(=O)c1c(Br)cccc1-2	314 to 317
O=C1c2ccccc2C(=O)N1Cc1ncc(/C=C/C(c2cc(Cl)c(Cl)c(Cl)c2)C(F)(F)F)cc1Cl (stereo unspecified)	79 to 82
Cc1oc(C)c(C(=O)Nc2ccc(Cl)c(C(=O)OC(C)C)c2)c1C	83 to 85
CC(C)N1CCN(c2ccc(OCC(O)CC(O)(Cn3cncn3)c3ccc(Cl)cc3Cl)cc2)CC1 (stereo unspecified)	131 to 132
CCCCCCCC(=O)N(C)Cc1cccc(-c2ccc(C=CC(=O)O)s2)c1	102 to 104
O=C1CCCCCCCCCCC=CCCCCCCCCCCC1O (stereo unspecified)	78
COc1cc(C2CCN(C(=O)CN(C)C)CC2)ccc1Nc1ncc2ccc(-c3ccccc3N(C)S(C)(=O)=O)n2n1	99 to 110
CCc1cccc(-c2cnc3[nH]cc(C(=O)C(C)(C)C)c3n2)c1	199 to 200
COC(=O)N1CCC[C@@H](OC)[C@@H]1CC(=O)Cn1cnc2c(Cl)c(Cl)sc2c1=O (relative stereo)	58 to 62
Cc1c(C)c2c(c(C)c1NC(=O)CC(C)(C)C)[C@@H](c1ccc(C(C)C)cc1)[C@H](C)O2 (relative stereo)	143 to 144
BrCc1cccc2c(-c3ccccc3)c(Br)oc12	135 to 138
C=Cc1ccc(ON2C(=O)c3ccccc3C2=O)cc1	129 to 131
CC(=O)N(c1cccc(C(=O)O)c1)c1cc(C(C)(C)C)c(O)c(C(C)(C)C)c1	204 to 206
CNS(=O)(=O)c1ccc2ccccc2c1	137
O=C(NCC1CCN(CC2(C(=O)O)CCCC2)CC1)N1C(=O)C2(CCCC2)c2ccccc21	188
CC1CC2C3C=C(Cl)C4=CC(=O)CCC4(C)C3C(O)CC2(C)C1C(=O)CO (stereo unspecified)	229
COc1cc(OC)nc(Oc2cccc3c2C(=O)OC3Oc2ccccc2)n1 (stereo unspecified)	155 to 157
COC(=O)c1cc(-c2ccc(OC)c(OC)c2)nn(CC=Cc2ccc(Cl)cc2)c1=O	118 to 119
COc1cc(OC)c(C(=O)CCCCN2CCC3(CC2)NC(=O)NC3=O)cc1NS(=O)(=O)c1ccc(C(F)(F)F)cc1	226
COc1ccc(C2CC(=O)N(Cc3ccc4cc(F)ccc4n3)C2)cc1OC1CCCC1 (stereo unspecified)	65 to 68
CCC1=C(c2ccc(F)c(F)c2)C(=NO)CC1	136 to 137
O=C1CCCCN1Cc1ccc[nH]1	106
CC(C)(C)OC(=O)COc1ccccc1C=O	68.6
C=Cc1ccc(CSCCNC(=O)COCC(=O)O)cc1	44.5 to 46

Compound	melting point [°C]
Cc1ccc(S(=O)(=O)N(F)CC(C)(C)C)cc1	58 to 62.5
Cc1cn(-c2ccc(N)cc2C(F)(F)F)c(C)n1	163 to 164
COC(=O)COc1ccc(CCCOS(C)(=O)=O)cc1	49 to 51
Fc1ccc(-c2c[nH]cc2-c2ccc(F)cc2)cc1	142
O=C(O)c1cc(F)c(F)c(OC(F)F)c1F	68 to 70
Nc1n[nH]c(Nc2ccccc2)n1	158 to 159
CSC(C(=O)N1CCOCC1)c1cccc(C(=O)c2ccccc2)c1N (stereo unspecified)	119 to 121
OCCOc1ccc2c(-c3ccccc3F)noc2c1Cl	112
CN1CCN(c2nc3sc4c(NCCCN5CCOCC5)ncnc4c3c3c2COC(C)(C)C3)CC1	90.6 to 92.4
OC1(c2cncs2)CCCc2cc(Cl)ccc21 (stereo unspecified)	108 to 109
CN1Cc2c(CO)ncn2-c2cccc(Cl)c2C1=O	207 to 208
Cc1cc(-c2ccnc(C(N)=O)c2)n(-c2ccc(F)cc2)n1	168 to 170
O=C(NC(CS)Cc1ccccc1)N1CCSCC1 (single isomer, unassigned; (+))	98 to 100
Cn1cc2c3c(c(Cl)cc2n1)CCC3=O	207 to 209
Nc1nccc(CCc2ccc3c(C(=O)Nc4cccc(C(F)(F)F)c4)cccc3c2)n1	225 to 227
CC(c1oc2ccccc2c(=O)c1-c1cccc(F)c1)n1nc(-c2ccc(C=O)o2)c2c(N)ncnc21 (stereo unspecified)	215 to 217
CCOC(=O)COc1cccc2c1CCc1sc(O)nc1-2	74 to 75
CCCCCCCc1cnc(-c2ccc(OC(=O)c3cc(N)c(O[C@H](C)CCCCCC)cc3[N+](=O)[O-])cc2)nc1	105
[O-][N+]1=C(c2ccco2)c2cc(Cl)ccc2N(CCCl)C(CCl)C1 (stereo unspecified)	158 to 159
COC(=O)c1nc2ccc(C=O)cc2cc1C	118 to 121
Cc1cc(C(=O)CCc2cc(-c3ccc(C(F)(F)F)cc3)nn2CC2CC2)ccc1OC(C)(C)C(=O)O	55 to 60
O=C(O)C1=CC2=CCCC=C2Sc2c1ccc1c2CCC1	77
Oc1nn(-c2ccccn2)c(-c2ccccc2)c1Cc1ccccc1	115 to 116
CCCOc1cc(F)cc2c1c(CCN(C)C)cn2CC	68.9 to 70.1

Compound	melting point [°C]
CCCCc1c(C(=O)OCC)sc2ccc([N+](=O)[O-])cc12	92 to 93
CC(=O)Oc1ccc(CC2CCCN2C)cc1OC(C)=O (stereo unspecified)	44 to 45
CS(=O)c1ccc(-c2nn(Cc3cccnc3)c(=O)cc2-c2ccc(Cl)cc2)cc1 (stereo unspecified)	155
CCCCCCC(=O)NCc1cccc2c1C(=O)N(C1CCC(=O)NC1=O)C2=O (stereo unspecified)	130 to 132
CCCN(CCC)C1Cc2cc3c(cc2C1)C(=O)N(c1ccc(C(N)=O)cc1)C3=O	275 to 276
CC(=O)OC1CSC(Oc2cncc(-c3ccc(C#N)c(C)c3)c2)C(OC(C)=O)C1OC(C)=O (stereo unspecified)	74 to 80
CC(CCCC(C)(C)O)C1CC(=O)C2=C3CCC4CC(O)CCC4(C)C3CCC21C (stereo unspecified)	177 to 179
CCC(Oc1cccc(C)c1C)C(=O)OC1CC(O)C=C2C=CC(C)C(CCC3CC(O)CC(=O)O3)C21 (mixture of isomers)	148 to 150
O=C(c1ccc([N+](=O)[O-])cc1)N1CCN(CCc2ccc(Cl)cc2)CC1	109 to 110
CON=C(OC)C(=O)c1nccn1Cc1ccccc1	55 to 58
O=C(O)Cc1ccccc1CBr	110
N#Cc1cc([N+](=O)[O-])ccc1N1CCCCC1	75
CC(C)(C)OC(=O)N[C@H]1C(=O)N[C@H]1CO (relative stereo)	128 to 131
CCOC(=O)c1cc(OCc2ccccc2)ccc1O	71.5 to 73
FC(F)(F)c1ccc(-c2cc(C(F)(F)F)n3cnc(-c4ccncc4)c3n2)cc1C(F)(F)F	211
CC1CN(C)CCC1(O)c1cc2ccccc2o1 (stereo unspecified)	128 to 130
CCN1CCC(=O)N(c2c(C)cccc2Cl)C1=S	141 to 144
O=C(Nc1ccc2[nH]c(=O)oc2c1)C(=O)N1CCC(Cc2ccc(C(F)(F)F)cc2)CC1	217
CCN1C(=O)Cc2cc3c(cc21)C(=O)c1ccccc1CO3	186 to 188
CC(=O)N1N=C(c2ccncc2)OC1c1c(F)cccc1F (stereo unspecified)	119 to 121
CC(C)(C)OC(=O)C(C1NC(C(=O)OCc2ccccc2)C2(CCOCC2)S1)N1C(=O)c2ccccc2C1=O (stereo unspecified)	168 to 169
Cc1sc(C=O)cc1C(=O)O	173
COc1cc2c(cc1OC)=C1C(C#N)SC(=N)N1CC=2 (stereo unspecified)	229 to 230
